# In patent US20260217767A1, “NOVEL A4B7 THIOETHER PEPTIDE DIMER ANTAGONISTS” (Protagonist Therapeutics, Inc., priority 2014, published 2026):
# Like-named read-outs stand apart in the source and are kept apart here. *1 amine or outer side, *2 acyl side, *3 side chain or, on linkers, in order; H or OH if unused. Where a SMILES comes first, the peptide text is derived from it. Bridges are numbered along the chain shown (N, C = ends). Roman numbers before positions name the chains, in order. [ ]: non-standard residue; d: D form. Phe(4-CF3) = N[C@@H](Cc1ccc(C(F)(F)F)cc1)C(=O)O; Diglycolyl = O=C(COCC(=O)[*:2])[*:1]; NMeR = CN[C@@H](CCCNC(=N)N)C(=O)O; Tic = O=C(O)[C@@H]1Cc2ccccc2CN1; X1 = O=C(c1ccccc1C[*:2])[*:1]; Pen = CC(C)(S)[C@H](N)C(=O)O
# Target: T1, RPMI 8866 cells (Homo sapiens, UniProt P13612+P26010)
# T1 sequence (P13612 34-1032): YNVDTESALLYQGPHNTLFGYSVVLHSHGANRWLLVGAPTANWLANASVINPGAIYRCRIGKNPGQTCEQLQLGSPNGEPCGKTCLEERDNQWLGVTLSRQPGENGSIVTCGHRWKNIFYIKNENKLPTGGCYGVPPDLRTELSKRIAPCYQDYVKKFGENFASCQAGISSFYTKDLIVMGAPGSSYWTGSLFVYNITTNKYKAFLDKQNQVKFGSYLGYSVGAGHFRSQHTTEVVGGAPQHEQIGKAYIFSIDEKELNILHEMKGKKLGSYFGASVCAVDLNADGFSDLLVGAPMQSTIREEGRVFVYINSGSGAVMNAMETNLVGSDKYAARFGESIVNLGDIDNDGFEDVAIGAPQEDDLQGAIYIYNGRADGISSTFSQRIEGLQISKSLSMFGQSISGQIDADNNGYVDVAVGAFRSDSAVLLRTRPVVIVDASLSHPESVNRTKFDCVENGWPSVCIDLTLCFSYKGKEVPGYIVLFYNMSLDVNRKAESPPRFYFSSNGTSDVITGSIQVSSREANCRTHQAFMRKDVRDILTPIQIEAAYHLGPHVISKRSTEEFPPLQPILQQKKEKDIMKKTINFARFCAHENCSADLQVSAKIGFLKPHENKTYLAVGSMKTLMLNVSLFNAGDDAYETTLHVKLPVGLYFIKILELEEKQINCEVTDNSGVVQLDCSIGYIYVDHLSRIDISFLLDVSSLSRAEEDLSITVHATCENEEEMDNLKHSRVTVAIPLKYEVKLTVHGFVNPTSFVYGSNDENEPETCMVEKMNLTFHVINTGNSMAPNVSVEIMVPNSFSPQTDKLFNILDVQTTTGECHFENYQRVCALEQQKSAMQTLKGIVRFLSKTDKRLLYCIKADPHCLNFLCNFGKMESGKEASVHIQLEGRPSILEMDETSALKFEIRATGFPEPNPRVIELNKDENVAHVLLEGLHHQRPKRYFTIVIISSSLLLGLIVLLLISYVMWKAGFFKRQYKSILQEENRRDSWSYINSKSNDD
# T1 sequence (P26010 20-798): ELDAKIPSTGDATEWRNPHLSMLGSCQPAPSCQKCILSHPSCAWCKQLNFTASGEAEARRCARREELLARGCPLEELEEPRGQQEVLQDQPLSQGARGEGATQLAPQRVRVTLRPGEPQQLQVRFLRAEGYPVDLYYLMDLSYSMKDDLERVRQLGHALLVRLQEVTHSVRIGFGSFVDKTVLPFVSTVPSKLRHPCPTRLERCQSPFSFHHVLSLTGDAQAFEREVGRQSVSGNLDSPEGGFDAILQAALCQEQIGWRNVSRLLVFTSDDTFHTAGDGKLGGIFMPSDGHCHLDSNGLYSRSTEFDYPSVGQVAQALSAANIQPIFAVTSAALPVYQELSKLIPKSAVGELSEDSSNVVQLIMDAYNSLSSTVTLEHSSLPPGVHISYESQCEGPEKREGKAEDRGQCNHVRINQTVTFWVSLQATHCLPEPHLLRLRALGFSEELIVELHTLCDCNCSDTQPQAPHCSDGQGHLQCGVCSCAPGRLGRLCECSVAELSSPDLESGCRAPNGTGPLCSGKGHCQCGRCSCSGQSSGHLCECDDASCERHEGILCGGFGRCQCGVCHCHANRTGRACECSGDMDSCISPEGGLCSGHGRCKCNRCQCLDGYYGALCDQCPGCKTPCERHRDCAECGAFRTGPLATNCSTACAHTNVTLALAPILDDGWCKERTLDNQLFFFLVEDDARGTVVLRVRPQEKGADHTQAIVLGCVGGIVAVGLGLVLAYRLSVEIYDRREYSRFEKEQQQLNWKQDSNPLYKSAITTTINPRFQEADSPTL
# Assay: α4β7-MAdCAM Cell Adhesion Assay
# Assay type: cell-based
# Settings: read-out: Cell-Adhesion A4B7
# Summary of the method: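 RPMI 8866 cells (200,000/well) in DMEM with 1 mM MnCl2 and 0.1% BSA were allowed to adhere 30-45 min at 37° C to plates coated with rh MAdCAM-1/Fc (200 ng/well) in presence of serially diluted peptide. After washing, bound cells quantified by MTT, absorbance 570 nm, cell-free background subtracted.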
# [1] = thioether peptide dimers, Table 7
# [2] = thioether monomer peptides, Table 6
SMILES,IC50 [1] [nM],IC50 [2] [nM]
"CC(C)C[C@@H]1NC(=O)[C@H]([C@@H](C)O)NC(=O)[C@H](CC(=O)O)NC(=O)[C@H](CO)NC(=O)[C@H](CCCNC(=N)N)N(C)C(=O)c2ccccc2CSC[C@@H](C(=O)N2Cc3ccccc3C[C@H]2C(=O)N[C@H](CCC(=O)O)C(=O)N[C@H](CCCCNC(=O)COCC(=O)NCCCC[C@@H](NC(=O)[C@@H](CCC(=O)O)NC(=O)[C@@H]2Cc3ccccc3CN2C(=O)[C@@H]2CSCc3ccccc3C(=O)N(C)[C@@H](CCCNC(=N)N)C(=O)N[C@@H](CO)C(=O)N[C@@H](CC(=O)O)C(=O)N[C@@H]([C@@H](C)O)C(=O)N[C@@H](CC(C)C)C(=O)N2)C(=O)O)C(=O)O)NC1=O [compound 207] (I: [NMeR]SDTLC[Tic][dE][dK]-OH / II: [NMeR]SDTLC[Tic][dE][dK]-OH; linker I:9-II:9 via Diglycolyl; linker I:N-I:6, II:N-II:6 via X1)",< 25,
"CC(C)C[C@@H]1NC(=O)[C@H]([C@@H](C)O)NC(=O)[C@H](CC(=O)O)NC(=O)[C@H](CO)NC(=O)[C@H](CCCNC(=N)N)N(C)C(=O)c2ccccc2CSC(C)(C)[C@@H](C(=O)N[C@@H](Cc2c[nH]c3ccccc23)C(=O)N[C@H](CCC(=O)O)C(=O)N[C@@H](CCC(=O)O)C(N)=O)NC1=O [compound 113] (HELM PEPTIDE1{[meR].S.D.T.L.[Pen].W.[dE].E.[am]}|CHEM1{[O=C(c1ccccc1C[*:2])[*:1]]}$PEPTIDE1,CHEM1,1:R1-1:R1|PEPTIDE1,CHEM1,6:R3-1:R2$$$V2.0)",,25 to 100
"CC(C)C[C@@H]1NC(=O)[C@H]([C@@H](C)O)NC(=O)[C@H](CC(=O)O)NC(=O)[C@H](CO)NC(=O)[C@H](CCCNC(=N)N)N(C)C(=O)c2ccccc2CSC(C)(C)[C@@H](C(=O)N[C@@H](Cc2ccc(C(F)(F)F)cc2)C(=O)N[C@@H](CCC(=O)O)C(=O)N[C@H](CCCCNC(=O)COCC(=O)NCCCC[C@@H](NC(=O)[C@H](CCC(=O)O)NC(=O)[C@H](Cc2ccc(C(F)(F)F)cc2)NC(=O)[C@H]2NC(=O)[C@H](CC(C)C)NC(=O)[C@H]([C@@H](C)O)NC(=O)[C@H](CC(=O)O)NC(=O)[C@H](CO)NC(=O)[C@H](CCCNC(=N)N)N(C)C(=O)c3ccccc3CSC2(C)C)C(N)=O)C(N)=O)NC1=O [compound 166] (I: [NMeR]SDTL[Pen][Phe(4-CF3)]E[dK]-NH2 / II: [NMeR]SDTL[Pen][Phe(4-CF3)]E[dK]-NH2; linker I:9-II:9 via Diglycolyl; linker I:N-I:6, II:N-II:6 via X1)",< 25,
"CC(C)C[C@@H]1NC(=O)[C@H]([C@@H](C)O)NC(=O)[C@H](CC(=O)O)NC(=O)[C@H](CO)NC(=O)[C@H](CCCNC(=N)N)N(C)C(=O)c2ccccc2CSC(C)(C)[C@@H](C(=O)N[C@@H](Cc2ccc(-c3ccccc3)cc2)C(=O)N[C@H](CCC(=O)O)C(=O)N[C@H](CCCCN)C(N)=O)NC1=O [compound 178] (HELM PEPTIDE1{[meR].S.D.T.L.[Pen].[O=C([C@H](Cc1ccc(-c2ccccc2)cc1)N[*:1])[*:2]].[dE].[dK].[am]}|CHEM1{[O=C(c1ccccc1C[*:2])[*:1]]}$PEPTIDE1,CHEM1,1:R1-1:R1|PEPTIDE1,CHEM1,6:R3-1:R2$$$V2.0)",< 25,
"CC(C)C[C@@H]1NC(=O)[C@H]([C@@H](C)O)NC(=O)[C@H](CC(=O)O)NC(=O)[C@H](CO)NC(=O)[C@H](CCCNC(=N)N)N(C)C(=O)c2ccccc2CSC(C)(C)[C@@H](C(=O)N[C@@H](Cc2c[nH]c3ccccc23)C(=O)N[C@@H](CCC(=O)O)C(N)=O)NC1=O [compound 96] (HELM PEPTIDE1{[meR].S.D.T.L.[Pen].W.E.[am]}|CHEM1{[O=C(c1ccccc1C[*:2])[*:1]]}$PEPTIDE1,CHEM1,1:R1-1:R1|PEPTIDE1,CHEM1,6:R3-1:R2$$$V2.0)",,100 to 1000
